The record followed here is patent US6147078A, “Pyrazinone thrombin inhibitors” (Merck & Co., Inc., priority 1999, dated 2000).

The nature of data set [1]: Metabolite identification in urine of male, bile duct-cannulated rats after intravenous dosing. It counts as in vivo, rat. To be noted: carbon 14 labeled, intravenous 20 mg/kg in saline, urine collected over 24 hours. The method, then:
Purification of 3-(2-Phenethyleneamino)-6-hydroxymethyl-1-(2-methyl-6-amino-3-methylenecarboxamidomethyl)pyrazin-2-one from male, bile duct-cannulated rats.
(§1) Rats were dosed intravenously with carbon 14 labeled [drawing 16] at 20 mg/kg in saline at 1 mL/kg. Bile and urine were collected periodically over 24 hours. Aliquots of these were analyzed for total radioactivity. Urine was also fractionated by HPLC using Zorbax XDB-C8 column eluted with 0.1% trifluoroacetic acid-water and acetonitrile gradient, and the fractions analyzed by mass spectrometry.

The next data set has as its system thrombin. The data set can be described thus: Bioassay of HPLC urine fractions for inhibitory effect on thrombin activity. It counts as biochemical. To be noted: urine HPLC fraction from rats, evaporated to dryness. The method, then:
as §1
In another procedure, the urine was fractionated by HPLC. An aliquot of the fractions was assayed for total radioactivity, and the remaining volume was evaporated to dryness, under nitrogen, and bioassayed for inhibitory effect on the thrombin activity.

Turning to `Cc1nc(N)ccc1CNC(=O)Cn1c(C)cnc(NCCc2ccccc2)c1=O`, the “metabolite in urine (site of hydroxylation)” value in data set [1] was “hydroxylation on the methylpyrazinone moiety”.

For the compound `Cc1nc(N)ccc1CNC(=O)Cn1c(CO)cnc(NCCc2ccccc2)c1=O` [6-HYDROXYMETHYL-3-(2-PHENETHYLAMINO )-1-(2-AMINO-6-METHYL-5-METHYLCARBOXAMIDOMETHYLPYRIDINYL)-PYRAZINONE], the “inhibitory effect on the thrombin activity” value in the data set with thrombin is “significant inhibitory activity”.
